Values quoted from earlier work, collected in patent publication US5470884A, “Anti-acne compositions” (Procter & Gamble, priority 1994, dated 1995).

System: skin
Details: excessive drying, scaling, swelling, burning, peeling, redness, allergic contact dermatitis, sensitization

O=C(OOC(=O)c1ccccc1)c1ccccc1 [benzoyl peroxide]
skin irritation: very irritating to the skin
